≈ marks a conversion by molar mass, not a printed value.
Experiments:
CMV AD169^IE2-YFP = assay: Anti-CMV activity (IC50) of NAPA compounds, AD169 IE2-YFP reporter virus high-content assay in fibroblasts; assay type: cell-based, Human cytomegalovirus; details: Human betaherpesvirus 5, AD169, Fibroblast
Procedure: To identify CMV inhibitors, a high-content screening (HCS) early-stage-specific reporter assay using a CMV AD169 yellow-fluorescent protein (YFP) expressing virus (AD169^IE2-YFP) (Gardner et al., Antiviral Res., 113:49-61 (2015)) was developed to screen >112,000 compounds to identify potent inhibitors (IC50<10 μM) of cytomegalovirus having a minimal mammalian cytotoxicity (CC50) of preferably ≥100 μM. As a result, we have identified, isolated, and characterized a novel series of N-arylpyrimidinamines (NAPAs) that inhibit CMV infection. […] Further, the NAPA compounds are broadly effective at inhibiting virus infection of diverse strains and cell types.
The CMV IE1 and IE2 gene products are translated within 3-6 hours post infection (hpi) and function to stimulate viral promoters to initiate transcription of early and late viral genes (Cherrington et al., J. Virol., 63:1435-40 (1989); Meier et al., J. Virol., 71:1246-1255 (1997)). The CMV AD169 variant that expresses a viral protein chimera consisting of IE2-YFP (AD1691E2/YFP) was utilized to quantify virus infection in a high-throughput screen by a robust fluorescent signal localized exclusively to the nucleus (8-24 hpi) (Gardner et al., supra (2015); Cohen et al., Viruses, 8 (10): 295 (2016); Cohen et al., J. Virol., 90:10715-10727 (2016)). Using the AD1691E2-YFP reporter virus assay, a collection of the compound libraries (>112,000 compounds) was screened for inhibitors of the early stages of CMV replication using a confocal fluorescence microscopic plate reader (BioTek Cytation3). Infection was calculated as a percentage of nuclei containing YFP and cycloheximide (8 μM) was used as a positive control. The Z′ factor for the optimized assay was >0.5 which was sufficient to initiate screening.
We evaluated 300 primary hits using an assay funnel designed to prioritize compounds based on antiviral activity, specificity, and drug-like properties. This identified two candidates for hit-to-lead optimization that were not Pan Assay Interference compounds (PAINS) (Baell et al., J. Med. Chem., 53:2719-40 (2010); Capuzzi et al., J. Chem. Inf. Model 57:417-427 (2017); Dahlin et al., Assay Drug Dev. Technol., 14:168-174 (2016)). […] The NAPA series was chosen as the primary hit-to-lead series due to its synthetic accessibility and the >2-log range in potency observed in the preliminary SAR that provides a clear pathway to improving antiviral activity and drug-like properties.

[1] = Cytotoxicity (CC50) against Hela cells for 3 d; assay type: cell-based; details: human
[2] = Maximum solubility in water by nephlometry; assay type: physicochemical; details: Maximum solubility in water determined by nephlometry; for solubility kinetic: kinetic from dmso stock
[3] = Murine liver microsome stability; assay type: in vitro ADME; details: % remaining after 30 min at 37° C. in the presence of NADPH
CYP3A4 = CYP3A4 (Homo sapiens, UniProt P08684); assay: CYP3A4 inhibition at 10 μM; assay type: in vitro ADME; details: % inhibition of CYP3A4 at 10 μM
CYP3A4, sequence (P08684 whole entry, species assumed): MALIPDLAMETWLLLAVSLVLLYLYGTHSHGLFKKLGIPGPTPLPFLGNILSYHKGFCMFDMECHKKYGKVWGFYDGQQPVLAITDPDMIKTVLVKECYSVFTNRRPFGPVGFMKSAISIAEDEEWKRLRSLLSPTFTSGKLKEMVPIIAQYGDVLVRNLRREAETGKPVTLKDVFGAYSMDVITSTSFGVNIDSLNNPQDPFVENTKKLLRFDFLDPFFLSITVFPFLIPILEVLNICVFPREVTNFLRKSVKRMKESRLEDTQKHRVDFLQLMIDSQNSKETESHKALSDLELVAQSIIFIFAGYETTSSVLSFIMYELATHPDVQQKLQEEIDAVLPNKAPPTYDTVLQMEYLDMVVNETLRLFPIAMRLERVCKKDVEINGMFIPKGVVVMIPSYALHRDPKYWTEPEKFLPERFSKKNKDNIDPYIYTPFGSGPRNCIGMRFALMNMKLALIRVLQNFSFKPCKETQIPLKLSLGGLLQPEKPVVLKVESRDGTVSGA

HCMV strain AD169^R = assay: CMV infection (neutralization) assay, GFP/IE1 readout 24 hpi, AD169^R; assay type: cell-based, Human cytomegalovirus
Procedure: (§1) Fibroblasts and ARPE-19 cells (10^4) were plated in 96-well plates (Greiner, Monroe, NC). The following day the cells were pretreated for 1 hour at 37° C. with increasing concentrations of the respective novel NAPA compounds described herein or DMSO in triplicate prior to infection with the respective viruses. At 18 hours post infection (hpi) cells were stained using a rabbit anti-IE1 antibody followed by an anti-rabbit Alexa 647 and measured using a Celigo Cytometer (Parsons et al., Antiviral Res., 193:105124 (2021); Stein et al., Nat. Commun., 10:2699 (2019)). Using the DMSO treated cells as 100% infection, the percent infection of the NAPA compound-treated cells was determined. The half maximal inhibitory (IC50) values were calculated using Prism9's nonlinear fit [inhibitor]-vs-response (four parameters) analysis of these averages and extrapolation to the concentration that would produce 50% infection relative to DMSO treatment.
(§2) To further evaluate the inhibitory properties of MBXC-4302 against CMV, we utilized the AD169 CMV virus strain containing the UL131-UL128 open reading frame of the HCMV strain TR and expressing EGFP (AD169^R) (Wang D. and Shenk T., Proc. Nat. Acad. Sci., USA, 102:18153-18158 (2005)) and TB40/E infection of human fibroblasts (NHDF) and ARPE-19 epithelial cells in the presence of increasing concentration of compound (FIG. 2A-D). Infection was analyzed 24 hours post infection (hpi) by measuring GFP fluorescence encoded by AD169^R or using an anti-IE1 antibody for staining TB40/E infected cells.
NAPA variants with modified groups were evaluated for inhibition of CMV infection in fibroblasts. AD169^R infected fibroblasts were treated with NAPA compounds MBX-4992, MBXC-4325, MBXC-4330, and MBXC-4336 (0-50 μM) and analyzed for infection at 24 hpi (FIG. 6A-D). The infected cells were probed for IE1 as an indication of virus infection.

HCMV strain TB40/E = assay: CMV infection (neutralization) assay, IE1 immunostain 24 hpi, TB40/E; assay type: cell-based, Human cytomegalovirus
Procedure: as §1, with “The half maximal inhibitory (IC50) values were calculated using Prism9's nonlinear fit [inhibitor]-vs-response (four parameters) analysis of these averages and extrapolation to the concentration that would produce 50% infection relative to DMSO treatment.” left out
as §2

AD169^R (IE1 expression) = assay: Western blot (immunoblot) of IE1 expression in AD169^R-infected cells; assay type: cell-based, Human cytomegalovirus; details: NHDF cells, 24 hpi; MBX-4992 1-10 μM, ganciclovir 5 μM, convallotoxin 0.01 μM
Procedure: The molecular weight markers and respective proteins are indicated.
FIGS. 12A and B are Western Blot assays showing that MBXC-4336 limits expression of IE1 in fibroblasts and epithelial cells. Total cell lysates from AD169^R-infected (MOI 0.2) NHDF (A) and ARPE-19 (B) cells pre-treated with DMSO, MBX-4336 (0, 1, 5, 10, or 20 μM), or heparin (50 μg/mL) collected at 48 hpi were subjected to Western blot analysis using a rabbit anti-IE-1 antibody (lanes 1-7) and an anti-GAPDH antibody (lanes 8-14) as a loading control. The molecular weight markers and respective proteins are indicated.
Total cell lysates from virus infected NHDF cells treated with compounds were created through SDS-lysis (10^4/100 uL of 1% SDS) of at least three rounds of heating at 95° C. for 3 min and vigorous agitation. The total cell lysates were resolved using an SDS-polyacrylamide gel (12.5%), transferred to a PVDF membrane using a semi-dry apparatus. The membrane was then incubated with 1% BSA/PBS for 1 hr at room temperature followed by incubation with anti-IE1 and anti-GAPDH. Finally, the respective secondary antibody conjugated with HRP was incubated with membrane followed by detection using ECL reagents (Millipore).
Next, inhibition of the expression of IE1 in AD169^R-infected cells treated with MBX-4992 was examined by immunoblot analysis (FIG. 4E). […] Collectively, these findings further indicate that MBX-4992 effectively prevents the expression of the immediate-early genes during a CMV infection.

Row | SMILES | IC50 (CMV AD169^IE2-YFP) [µM] | CC50 at 3 d [1] [µM] | solubility kinetic [2] [µM] | MLMS [3] | CYP (CYP3A4) | Sol [2] | IC50 (HCMV strain AD169^R; Human betaherpesvirus 5, AD169, ARPE-19) [µM] | IC50 (HCMV strain AD169^R; Human betaherpesvirus 5, AD169, NHDF) [µM] | IC50 (HCMV strain TB40/E; Human betaherpesvirus 5, ARPE-19) [µM] | IC50 (HCMV strain TB40/E; Human betaherpesvirus 5, NHDF) [µM] | IE1 expression by immunoblot (AD169^R (IE1 expression))
1 | Cc1nc(Nc2ccc(NC(=O)c3ccco3)cc2)cc(N(C)C)n1 [MBX-4991] | 2.3 | > 100 | > 200 | 65% | 18% |  |  |  |  |  | 
2 | Cc1nc(Nc2ccc(NC(=O)c3cccs3)cc2)cc(N(C)C)n1 [MBXC-4294] | > 40 | 57 |  |  |  |  |  |  |  |  | 
3 | Cc1nc(Nc2ccc(NC(=O)c3ccco3)cc2)cc(N2CCCCC2)n1 [MBXC-4295] | 0.46 | 54 | 50 (≈ 18.9 µg/mL) | 36% | <10% |  |  |  |  |  | 
4 | Cc1ccc(Nc2cc(Nc3ccc(NC(=O)c4ccco4)cc3)nc(C)n2)cc1 [MBXC-4297] | 0.37 | 21 | 25 (≈ 9.99 µg/mL) | 44% | <10% |  |  |  |  |  | 
5 | CCNc1cc(Nc2ccc(NC(=O)c3ccco3)cc2)nc(C)n1 [MBXC-4298] | 3.7 | 29 | 200 (≈ 67.5 µg/mL) | 64% | 50% |  |  |  |  |  | 
6 | Cc1ccc(Nc2nc(C)cc(Nc3ccc(NC(=O)c4ccco4)cc3)n2)cc1 [MBXC-4299] | 0.32 | 5.5 |  | 68% | < 10% |  |  |  |  |  | 
7 | Cc1ccc(Nc2nc(C)cc(Nc3ccc(NC(=O)Nc4cccc(Cl)c4)cc3)n2)cc1 [MBXC-4300] | 3.8 | 2.7 |  | N/A 60% | N/A 10% | N/A 3.1 μM |  |  |  |  | 
8 | Cc1ccc(Nc2nc(C)cc(Nc3ccc(NS(=O)(=O)c4ccccc4)cc3)n2)cc1 [MBXC-4301] | 24 | 11 |  |  |  |  |  |  |  |  | 
9 | Cc1nc(Nc2ccc(NC(=O)c3ccco3)cc2)cc(-n2cccn2)n1 [MBXC-4302] | 3.2 | > 100 | 12.5 (≈ 4.5 µg/mL) | 62% | <10% |  | 5.8 | 3 | ~5.3 | ~5.3 | 
10 | Cc1cc(Nc2ccccc2)nc(Nc2ccc(NC(=O)c3ccc(Cl)cc3)cc2)n1 [MBXC-4303] | 20 | 7 |  |  |  |  |  |  |  |  | 
11 | Cc1ccc(Nc2cc(C)nc(Nc3ccc(NC(=O)c4ccco4)cc3)n2)cc1 [MBXC-4304] | 0.48 | 5.8 |  | 63% | 16% |  |  |  |  |  | 
12 | C[C@@H]1O[C@@H](O[C@H]2CC[C@]3(C=O)[C@H]4CC[C@]5(C)[C@@H](C6=CC(=O)OC6)CC[C@]5(O)[C@@H]4CC[C@]3(O)C2)[C@H](O)[C@H](O)[C@H]1O [convallatoxin, reference compound] |  |  |  |  |  |  |  |  |  |  | prevented infection
